Experimental data from patent publication US10670605B2, “Cysteine reactive probes and uses thereof” (The Scripps Research Institute, priority 2015, dated 2020).
Structures can show the parent of a compound that is named as a salt. Values belong to the compound of their own block, whether it stands above or below them.

Legend:
Assay type in all cases: cell-based
[1] = system: splenic T cells from C57BL/6 mice; experiment: Activation of primary mouse T cells (CD25, CD69); details: C57BL/6, 8 h
Procedure: Spleens were harvested from female mice, perfused with collagenase, and incubated at 37° C. with 5% CO2 for 30 min. After this time, the spleens were homogenized. Cells that passed through a 100 μm cell strainer were collected and washed with RPMI. T cells were isolated from the splenocytes using the EasySepTM Mouse T cell Isolation Kit (19851; […]) according to manufacturer's instructions. 96-well plates were coated with anti-CD3 (1:200; BioXcell) and anti-CD28 (1:500; 302933; BioLegend) in PBS (100 μL/well) overnight at 4° C. The plates were then washed twice with PBS and to each well was added 500,000 primary T cells in 100 μL of RPMI supplemented with 10% FBS, glutamine, and Pen-Strep. Cells were then treated with 100 μL of media containing compound at the indicated concentrations (final well volume of 200 μL). Cells were left at 37° C. in a 5% CO2 incubator for the indicated periods of time and harvested by centrifugation (500 g, 8 min, 4° C.), followed by washing with PBS. […] Data was then analyzed with FlowJo software (Treestar Inc.). […]

PKCθ C322 = target: T1, PKCθ C322 (Homo sapiens, UniProt Q04759); experiment: isoTOP-ABPP of compound-treated primary human T cells; details: 50 μM, 4 h
T1 construct: endogenous in cells; host or cells: primary human T cells
Procedure: (§1) Cells were lysed by sonication and diluted to a concentration of 2 mg protein/mL. Protein concentrations were measured with the Bio-Rad DC™ protein assay reagents A and B (5000113, 5000114; Bio-Rad). 500 μL of proteome sample was treated with 100 μM of IA-alkyne probe using […] of a 10 mM DMSO stock. The labeling reactions were incubated at room temperature for 1 h upon which time the samples were conjugated to isotopically-labeled TEV-cleavable tags (TEV tags) by copper-catalyzed azide-alkyne cycloaddition (CuACC or ‘click chemistry’). 60 μL of heavy click chemistry reaction mixture was added to the DMSO-treated control sample and 60 μL of the light reaction mixture was added to the compound-treated sample. The click reaction mixture comprised TEV tags (10 μL of a 5 mM stock, light (fragment treated) or heavy (DMSO treated)), CuSO4 (10 μL of a 50 mM stock in water), and TBTA (30 μL of a 1.7 mM stock in 4:1 tBuOH:DMSO). To this was added TCEP (10 μL of a 50 mM stock). The reaction was performed for 1 h at room temperature.
(§2) The resulting pellets were resuspended in 500 μL of cold methanol by sonication and the heavy and light samples combined pairwise. Combined pellets were then washed with cold MeOH, after which the pellet was solubilized in PBS containing 1.2% SDS by sonication. The samples were heated at 90° C. for 5 min and subjected to streptavidin enrichment of probe-labeled proteins, sequential on-bead trypsin and TEV digestion, and liquid chromatography-tandem mass spectrometry (LC-MS/MS) according to the published isoTOP-ABPP protocols.
(§3) The quantification of heavy/light ratios (isoTOP-ABPP ratios, R values) was performed by in-house CIMAGE software using default parameters (3 MS1's per peak and signal to noise threshold of 2.5). Site-specific engagement of electrophilic compounds was assessed by blockade of IA-alkyne probe labeling. […] Overlapping peptides with the same labeled cysteine (for example, same local sequence around the labeled cysteines but different charge states, MudPIT segment numbers, or tryptic termini) were grouped together, and the median ratio from each group was recorded as the R value of the peptide for that run.

PKCθ C14/C17 = target: T2, PKCθ C14/C17 (Homo sapiens, UniProt Q04759); experiment: as above; details: for R value (DMSO/DMF): PRKCQ C14 (Q04759)
T2 construct: endogenous in cells; host or cells: primary human T cells
Procedure: as §1, §2, §3

PRKDC C4045 = target: T3, PRKDC C4045 (Homo sapiens, UniProt P78527); experiment: as above; details: for R value (DMSO/DMF): PRKDC C4045 (P78527)
T3 construct: endogenous in cells; host or cells: primary human T cells
Procedure: as §1, §2, §3

SMAD2 C81 (Q15796) = SMAD2 C81 (Q15796) (Homo sapiens, UniProt Q15796); experiment: Competitive isoTOP-ABPP in situ; details: fragment 2 at 200 μM, MDA-MB-231 cells
[2] = target: cysteines in MDA-MB-231 and Ramos cells (Homo sapiens, UniProt Q8IV53); experiment: Competitive isoTOP-ABPP in situ (fragment-treated cells); details: 200 μM, insitu, ramos
[3] = target: cysteines in MDA-MB-231 and Ramos cells (Homo sapiens, UniProt Q5T1V6); experiment: as above; details: 200 μM, insitu, 231
[4] = target: cysteines in MDA-MB-231 and Ramos cells (Homo sapiens, UniProt Q13867); experiment: as above; details: 200 μM, insitu, 231
[5] = target: cysteines in MDA-MB-231 and Ramos cells (Homo sapiens, UniProt Q9P0K7); experiment: as above; details: 100 μM in situ 231
[6] = target: cysteines in MDA-MB-231 and Ramos cells (Homo sapiens, UniProt Q9UHQ1); experiment: as above; details: 200 μM, insitu, ramos
[7] = target: cysteines in MDA-MB-231 and Ramos cells (Homo sapiens, UniProt P53992); experiment: as above; details: 200 μM, insitu, 231
[8] = target: cysteines in MDA-MB-231 and Ramos cells (Homo sapiens, UniProt Q8WUM4); experiment: as above; details: cysteine Q8WUM4_C90; fragment 200 μM, in situ, 231 (MDA-MB-231) cells
[9] = target: cysteines in MDA-MB-231 and Ramos cells (Homo sapiens, UniProt Q96IV0); experiment: as above; details: cysteine Q96IV0_C309; fragment 200 μM, in situ, ramos cells
[10] = target: cysteines in MDA-MB-231 and Ramos cells (Homo sapiens, UniProt Q86UV5); experiment: as above; details: 200 μM, insitu, ramos

T2 sequence (Q04759 whole entry): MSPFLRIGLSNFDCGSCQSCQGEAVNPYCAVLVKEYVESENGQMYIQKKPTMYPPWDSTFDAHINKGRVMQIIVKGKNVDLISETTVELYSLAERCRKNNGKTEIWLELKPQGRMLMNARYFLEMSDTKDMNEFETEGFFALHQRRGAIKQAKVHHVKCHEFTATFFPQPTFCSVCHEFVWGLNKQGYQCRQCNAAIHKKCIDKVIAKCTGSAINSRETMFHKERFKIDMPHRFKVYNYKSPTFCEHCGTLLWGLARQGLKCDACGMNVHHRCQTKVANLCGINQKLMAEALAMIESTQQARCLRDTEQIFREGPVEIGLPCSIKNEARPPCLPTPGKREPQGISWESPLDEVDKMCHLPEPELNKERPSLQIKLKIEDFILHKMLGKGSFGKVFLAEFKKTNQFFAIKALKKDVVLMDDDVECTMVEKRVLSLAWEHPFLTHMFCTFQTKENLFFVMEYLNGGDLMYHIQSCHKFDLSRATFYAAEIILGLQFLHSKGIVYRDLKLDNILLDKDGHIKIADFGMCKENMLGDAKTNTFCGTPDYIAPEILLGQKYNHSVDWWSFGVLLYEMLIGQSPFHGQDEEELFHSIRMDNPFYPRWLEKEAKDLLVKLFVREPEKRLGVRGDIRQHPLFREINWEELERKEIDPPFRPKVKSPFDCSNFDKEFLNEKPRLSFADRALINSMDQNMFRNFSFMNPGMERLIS
T3 sequence (P78527 whole entry): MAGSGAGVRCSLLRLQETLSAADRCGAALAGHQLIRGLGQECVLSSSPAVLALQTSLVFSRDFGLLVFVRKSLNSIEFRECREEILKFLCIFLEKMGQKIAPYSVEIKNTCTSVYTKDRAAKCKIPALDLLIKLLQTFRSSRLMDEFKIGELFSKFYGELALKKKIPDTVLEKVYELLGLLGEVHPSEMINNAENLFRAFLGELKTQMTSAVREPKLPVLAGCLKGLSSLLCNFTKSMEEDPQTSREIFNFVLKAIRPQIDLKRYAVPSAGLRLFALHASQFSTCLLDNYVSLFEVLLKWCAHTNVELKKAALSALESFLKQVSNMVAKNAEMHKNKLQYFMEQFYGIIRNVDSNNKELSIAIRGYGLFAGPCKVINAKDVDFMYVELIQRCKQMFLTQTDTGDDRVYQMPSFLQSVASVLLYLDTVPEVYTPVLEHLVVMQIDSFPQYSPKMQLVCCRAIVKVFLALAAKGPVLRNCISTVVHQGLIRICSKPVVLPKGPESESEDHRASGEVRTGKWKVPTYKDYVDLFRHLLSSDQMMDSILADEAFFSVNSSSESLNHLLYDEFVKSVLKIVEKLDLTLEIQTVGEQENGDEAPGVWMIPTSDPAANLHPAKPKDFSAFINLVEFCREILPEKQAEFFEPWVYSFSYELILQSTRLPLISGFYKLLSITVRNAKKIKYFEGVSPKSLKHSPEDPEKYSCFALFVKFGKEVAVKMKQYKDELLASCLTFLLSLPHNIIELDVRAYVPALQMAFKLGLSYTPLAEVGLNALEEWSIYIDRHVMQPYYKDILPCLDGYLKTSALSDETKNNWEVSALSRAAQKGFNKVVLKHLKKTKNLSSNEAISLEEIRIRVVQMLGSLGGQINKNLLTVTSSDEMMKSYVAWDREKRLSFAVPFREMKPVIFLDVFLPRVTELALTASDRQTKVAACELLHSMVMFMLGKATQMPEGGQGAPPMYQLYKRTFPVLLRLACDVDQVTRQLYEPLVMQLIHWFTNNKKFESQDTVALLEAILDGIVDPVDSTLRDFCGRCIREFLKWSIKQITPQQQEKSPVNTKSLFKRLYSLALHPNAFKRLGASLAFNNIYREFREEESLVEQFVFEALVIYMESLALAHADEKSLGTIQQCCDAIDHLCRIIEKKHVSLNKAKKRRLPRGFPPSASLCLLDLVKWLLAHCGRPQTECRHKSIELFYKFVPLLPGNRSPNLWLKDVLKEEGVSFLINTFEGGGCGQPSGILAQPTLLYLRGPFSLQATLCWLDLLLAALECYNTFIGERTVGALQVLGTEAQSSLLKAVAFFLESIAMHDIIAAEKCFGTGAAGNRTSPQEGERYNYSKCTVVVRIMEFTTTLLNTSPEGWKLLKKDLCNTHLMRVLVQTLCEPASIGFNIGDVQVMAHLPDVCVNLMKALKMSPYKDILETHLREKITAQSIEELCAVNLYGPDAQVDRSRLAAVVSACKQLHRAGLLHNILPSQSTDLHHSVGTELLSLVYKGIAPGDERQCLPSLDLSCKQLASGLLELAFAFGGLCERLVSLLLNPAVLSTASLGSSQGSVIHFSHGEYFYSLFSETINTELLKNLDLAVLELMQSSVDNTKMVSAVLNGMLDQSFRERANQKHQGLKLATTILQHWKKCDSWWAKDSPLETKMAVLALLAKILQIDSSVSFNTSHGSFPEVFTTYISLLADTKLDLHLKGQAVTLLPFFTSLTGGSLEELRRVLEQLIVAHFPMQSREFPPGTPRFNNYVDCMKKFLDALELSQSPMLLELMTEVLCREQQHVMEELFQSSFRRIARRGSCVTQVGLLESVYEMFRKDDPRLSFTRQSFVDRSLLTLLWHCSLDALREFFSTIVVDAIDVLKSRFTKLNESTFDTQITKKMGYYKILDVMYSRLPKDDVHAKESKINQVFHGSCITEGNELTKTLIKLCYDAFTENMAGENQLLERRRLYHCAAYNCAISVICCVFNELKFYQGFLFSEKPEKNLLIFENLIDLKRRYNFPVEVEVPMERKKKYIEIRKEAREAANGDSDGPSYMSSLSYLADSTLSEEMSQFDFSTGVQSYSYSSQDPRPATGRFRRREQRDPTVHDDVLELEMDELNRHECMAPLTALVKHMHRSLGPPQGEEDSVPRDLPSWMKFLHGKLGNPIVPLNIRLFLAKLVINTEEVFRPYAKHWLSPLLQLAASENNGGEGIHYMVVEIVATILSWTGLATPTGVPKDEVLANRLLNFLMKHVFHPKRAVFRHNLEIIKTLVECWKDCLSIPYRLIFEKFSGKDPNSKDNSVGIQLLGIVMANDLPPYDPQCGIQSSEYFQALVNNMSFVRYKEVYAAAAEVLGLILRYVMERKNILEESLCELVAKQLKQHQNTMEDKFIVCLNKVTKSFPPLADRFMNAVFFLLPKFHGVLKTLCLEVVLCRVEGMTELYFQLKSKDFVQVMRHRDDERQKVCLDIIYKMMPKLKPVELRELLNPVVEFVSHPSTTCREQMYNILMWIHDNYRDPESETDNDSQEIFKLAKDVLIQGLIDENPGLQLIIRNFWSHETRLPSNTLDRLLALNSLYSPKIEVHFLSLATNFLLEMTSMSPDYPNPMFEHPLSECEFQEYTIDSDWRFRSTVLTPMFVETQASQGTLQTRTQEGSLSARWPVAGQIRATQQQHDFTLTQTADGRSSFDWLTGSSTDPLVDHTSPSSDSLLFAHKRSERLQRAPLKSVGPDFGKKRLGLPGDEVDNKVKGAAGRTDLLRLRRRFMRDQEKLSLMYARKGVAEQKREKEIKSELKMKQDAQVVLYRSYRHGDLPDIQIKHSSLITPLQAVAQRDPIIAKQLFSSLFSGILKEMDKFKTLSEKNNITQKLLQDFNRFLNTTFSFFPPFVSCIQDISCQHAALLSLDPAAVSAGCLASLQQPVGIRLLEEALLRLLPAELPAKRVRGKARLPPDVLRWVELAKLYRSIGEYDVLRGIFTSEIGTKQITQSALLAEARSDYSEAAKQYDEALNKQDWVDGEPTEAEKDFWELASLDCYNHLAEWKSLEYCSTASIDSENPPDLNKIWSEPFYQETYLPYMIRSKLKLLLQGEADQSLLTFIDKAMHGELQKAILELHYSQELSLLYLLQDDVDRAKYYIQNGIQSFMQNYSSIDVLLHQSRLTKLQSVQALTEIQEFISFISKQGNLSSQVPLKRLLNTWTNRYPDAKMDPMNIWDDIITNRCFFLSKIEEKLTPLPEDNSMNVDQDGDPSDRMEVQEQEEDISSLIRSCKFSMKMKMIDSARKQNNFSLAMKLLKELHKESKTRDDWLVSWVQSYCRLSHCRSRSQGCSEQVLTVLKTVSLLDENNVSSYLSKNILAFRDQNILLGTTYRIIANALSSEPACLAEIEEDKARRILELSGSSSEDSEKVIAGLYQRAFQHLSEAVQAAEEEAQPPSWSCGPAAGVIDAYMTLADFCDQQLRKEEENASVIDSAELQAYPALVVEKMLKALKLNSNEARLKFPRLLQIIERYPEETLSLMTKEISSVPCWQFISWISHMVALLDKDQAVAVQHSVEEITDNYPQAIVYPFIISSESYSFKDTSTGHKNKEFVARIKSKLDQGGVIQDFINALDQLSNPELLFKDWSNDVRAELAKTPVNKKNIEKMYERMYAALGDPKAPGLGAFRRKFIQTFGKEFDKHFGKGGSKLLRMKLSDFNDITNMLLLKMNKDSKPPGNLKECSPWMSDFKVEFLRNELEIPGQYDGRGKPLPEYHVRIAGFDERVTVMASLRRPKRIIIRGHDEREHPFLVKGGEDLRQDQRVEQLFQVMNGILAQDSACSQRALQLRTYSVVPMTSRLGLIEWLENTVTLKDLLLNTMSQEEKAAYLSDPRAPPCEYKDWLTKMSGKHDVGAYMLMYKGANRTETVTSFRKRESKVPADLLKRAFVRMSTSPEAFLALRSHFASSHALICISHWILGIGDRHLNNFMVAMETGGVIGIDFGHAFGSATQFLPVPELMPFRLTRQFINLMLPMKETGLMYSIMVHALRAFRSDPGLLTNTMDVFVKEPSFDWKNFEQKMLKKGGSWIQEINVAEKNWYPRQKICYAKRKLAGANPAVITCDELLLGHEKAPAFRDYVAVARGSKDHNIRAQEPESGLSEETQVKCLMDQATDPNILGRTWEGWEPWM
T1 sequence (Q04759 whole entry): as the sequence (Q04759 whole entry) above

Structure (SMILES): COC(=O)/C=C/C(=O)OC [DMF, dimethyl fumarate]
activation of primary mouse splenic T cells [1]: suppressed
IA-alkyne reactivity of PKCθ C322 (PKCθ C322): unaffected
IA-alkyne reactivity of PKCθ C14 and C17 (PKCθ C14/C17; 50 μM, 4 h): blocked
R value (DMSO/DMF) (PKCθ C14/C17; DMF 10 μM 4h): 1.62
R value (DMSO/DMF) (PKCθ C14/C17; DMF 25 μM 4h): 3.29
R value (DMSO/DMF) (PKCθ C14/C17; DMF 50 μM 2h): 2.92
R value (DMSO/DMF) (PKCθ C14/C17; DMF 50 μM 4h): 4.21
IA-alkyne reactivity of PRKDC C4045 (PRKDC C4045; 50 μM, 4 h): blocked
R value (DMSO/DMF) (PRKDC C4045; DMF 50 μM 1h): 4.14
R value (DMSO/DMF) (PRKDC C4045; DMF 50 μM 2h): 10.53

isoTOP-ABPP reactivity profile (ratio) 2_200 μM_in-situ_231 (SMAD2 C81 (Q15796)): 20.0
Structure (SMILES): COc1ccc2c(c1)CCCN2C(=O)CCl [compound 2]

isoTOP-ABPP ratio, cysteine Q8IV53_C174 [2]: 5.0
isoTOP-ABPP ratio, cysteine Q5T1V6_C414 [3]: 11.3
isoTOP-ABPP ratio, cysteine Q13867_C73 [4]: 4.2
Structure (SMILES): O=C(CCl)N1CCN(S(=O)(=O)c2ccccc2F)CC1 [compound 10]

isoTOP-ABPP ratio, cysteine Q9P0K7_C973 [5]: 0.8
Structure (SMILES): Cn1cc(S(=O)(=O)N2CCOCC2)cc1C(=O)NC(=O)CCl [compound 11]

isoTOP-ABPP ratio, cysteine Q9UHQ1_C99 [6]: 20.0
isoTOP-ABPP ratio, cysteine P53992_C78 [7]: 0.7
Structure (SMILES): O=C(CCl)NCCc1c[nH]c2ccccc12 [compound 13]

reactivity profile of liganded cysteine Q8WUM4_C90 with fragment electrophile (isoTOP-ABPP ratio) [8]: 0.6
Structure (SMILES): CC(C)CCOCCNC(=O)CCl [compound 27]

reactivity profile of liganded cysteine Q96IV0_C309 with fragment electrophile (isoTOP-ABPP ratio) [9]: 3.0
Structure (SMILES): O=C(CCl)N1CCN(CC(=O)N2CCOCC2)CC1 [compound 29]

isoTOP-ABPP ratio, Q86UV5_C39 [10]: 1.3
Structure (SMILES): C=CC(=O)N(Cc1cccnc1)c1cc(C(F)(F)F)cc(C(F)(F)F)c1 [compound 31]
